Here are results for two compounds from patent US7108865B2, “Controlled-release dosage forms of azithromycin” (Pfizer Inc, priority 1994, dated 2006).

The conditions of the data set: pH 7. The source says: A third class of azithromycin sustained-release dosage forms includes the osmotic delivery devices or “osmotic pumps” as they are known in the art. Osmotic pumps comprise a core containing an osmotically effective composition surrounded by a semipermeable membrane. The term “semipermeable” in this context means that water can pass through the membrane, but solutes dissolved in water cannot. In use, when placed in an aqueous environment, the device imbibes water due to the osmotic activity of the core composition. […] The osmotically effective composition includes water-soluble species, which generate a colloidal osmotic pressure, and water-swellable polymers.

With `CC[C@H]1OC(=O)[C@H](C)[C@@H](O[C@H]2C[C@@](C)(OC)[C@@H](O)[C@H](C)O2)[C@H](C)[C@@H](O[C@@H]2O[C@H](C)C[C@H](N(C)C)[C@H]2O)[C@](C)(O)C[C@@H](C)CN(C)[C@H](C)[C@@H](O)[C@]1(C)O` [azithromycin dihydrate], the solubility entry is reported as “much lower”.
Azithromycin fumarate: the “osmotic pressure corresponding to the solubility” value was “about 3 atmospheres” and the solubility result was “about 100 mg/ml”.
